The source of these data is patent publication US20260327244A1, “PYRIDO[4,3-D]PYRIMIDINE COMPOUNDS” (Pfizer Inc., priority 2022, published 2026).

Each structure is given as a SMILES string. Where a name gives a salt, the structure may show the parent alone. Read-outs that look alike come from different tables or passages of the source.

In data set [1] the target is T1, G12V KRAS (aa2-184) (Homo sapiens, UniProt P01116, G12V). The data set can be described thus: biochemical.
Procedure: (§3) SPR assay was used to measure the kinetic binding constant (KD) of Examples of the present invention.
(§4) The binding affinity and kinetics of Examples of the present invention were measured by Surface Plasmon Resonance (SPR) using Biacore 8K or 8K+ (Cytiva, Marlborough, MA) instruments. Recombinant, C-terminal site-specific biotinylated, wild-type (WT) KRAS (aa1-185), G12D KRAS (aa1-185), G12C KRAS (aa2-184), G12V KRAS (aa2-184), WT HRAS (aa2-184) and WT NRAS (aa2-185) proteins purified in presence of 1 μM GDP were used in these experiments. Binding measurements were performed parallelly in sets of either WT/G12D/G12C/G12V KRAS or WT K/H/N RAS proteins.
(§5) Biacore instrument was desorbed and docked with a Series S Sensor Chip SA. The proteins were diluted to 50 μg/mL with the assay buffer (50 mM HEPES, 150 mM NaCl, 10 μM GDP, 5 mM MgCl2, 0.5 mM TCEP, 5% glycerol, 0.02% Tween-20, 2% DMSO, pH 7.2) and immobilized at a flow rate of 3 μL/min at 10° C. with a contact time of 15 min. to capture ~3000-4000 RUs of proteins on the surface. The functionalized surface was then equilibrated with assay buffer for approximately 1 hour. Un-functionalized SA surfaces with no immobilized protein served as reference for binding kinetic analysis. Compound binding kinetics were measured in either multi-cycle or single-cycle kinetic format.
(§6) A 2-fold, 10-point serial dilution of test compounds was set-up in a 96-well microplate (Greiner; Cat #650101) with a top concentration of either 10 μM or 100 μM. Binding kinetics was measured at 10° C. by injecting serial dilution of compounds onto both reference and RAS immobilized channels at a flow rate of 100 μL/min and association time of 90 seconds. Compound dissociation was monitored for at least 400 seconds during each cycle. No additional regeneration was used. DMSO calibration curve was obtained before and after compound analysis by injecting 0-4% of DMSO in assay buffer. A suitable compound with known affinity and kinetics was tested once in every experiment as a positive control to assess activity of the captured protein on the surface.
(§7) A 3-fold, 6-point serial dilution of compounds was set-up in a deep 96-well microplate (Greiner Bio; Cat #780201) with the highest concentration of 1 μM (concentration range: 0.004-1 μM). Binding kinetics was measured at 10° C. by injecting serial dilutions of compounds in increasing order onto reference as well as RAS immobilized channels at a flow rate of 100 μL/min and association time of 120 seconds. Compound dissociation was monitored for at least 3600 seconds. Two buffer blanks were also run in a single-cycle kinetics format before the compound run for double referencing. No additional regeneration was used. DMSO calibration curve was obtained before and after compound analysis by injecting 0-4% of DMSO in the assay buffer. A suitable compound with known affinity and kinetics was tested once in every experiment as a positive control to assess activity of the captured protein on the surface.
(§8) Both MCK and SCK data were processed and analyzed using Biacore Insight evaluation software (Cytiva, Marlborough, MA)). […] The adequateness of the fit was judged by c^2 values and the randomness of residue distribution.
(§9) A geometric mean of binding constant KD was provided when an Example was tested more than once (n is testing replicate number).
The next data set addresses T2, WT HRAS (aa2-184) (Homo sapiens, UniProt P01112).
T2 construct: WT HRAS (aa2-184)
The data set can be described thus: SPR binding assay, WT HRAS. The note with it: SPR at 10 °C, geometric mean when tested more than once. From the text: (§1) No additional regeneration was used.
(§2) Compound dissociation was monitored for at least 3600 seconds. […] No additional regeneration was used.
On the technique in general: SPR reads the build-up and loss of mass on a sensor chip optically.

Another data set concerns the target T3, WT NRAS (aa2-185) (Homo sapiens, UniProt P01111).
T3 construct: WT NRAS (aa2-185)
The data set can be described thus: SPR binding assay, WT NRAS. The note with it: SPR at 10 °C, geometric mean when tested more than once.
From the text: as §1, §2

The target of data set [2] is T4, G12D KRAS (aa1-185) (Homo sapiens, UniProt P01116, G12D). The data set can be described thus: biochemical.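 Note: surface plasmon resonance at 10 °C, KRAS captured on a streptavidin chip in GDP-containing buffer, compound dilution series injected, blank streptavidin surface as reference.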
T4 sequence (P01116 1-185 isoform P01116-2 G12D): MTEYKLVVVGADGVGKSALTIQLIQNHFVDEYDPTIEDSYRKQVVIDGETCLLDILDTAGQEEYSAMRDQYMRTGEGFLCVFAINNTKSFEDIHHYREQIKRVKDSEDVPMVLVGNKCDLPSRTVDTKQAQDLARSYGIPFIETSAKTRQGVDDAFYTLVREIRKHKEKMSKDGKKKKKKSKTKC
Procedure: as §3, §4, §5, §6, §7, §8, §9
For data set [3], the target named is T5, G12C KRAS (aa2-184) (Homo sapiens, UniProt P01116, G12C). Briefly: biochemical.
T5 sequence (P01116 2-184 isoform P01116-2 G12C): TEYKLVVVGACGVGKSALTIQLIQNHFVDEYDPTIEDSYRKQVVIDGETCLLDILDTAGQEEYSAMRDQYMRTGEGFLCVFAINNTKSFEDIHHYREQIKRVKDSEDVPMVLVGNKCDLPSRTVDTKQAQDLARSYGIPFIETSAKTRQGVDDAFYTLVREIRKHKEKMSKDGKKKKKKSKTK
Procedure: as §3, §4, §5, §6, §7, §8, §9
Data set [4] concerns the target T6, wild-type (WT) KRAS (aa1-185) (Homo sapiens, UniProt P01116).
T6 construct: wild-type (WT) KRAS (aa1-185)
Briefly: KRAS Surface Plasma Resonance (SPR) binding assay, WT KRAS. The note with it: SPR at 10 °C, geometric mean when tested more than once.
From the text: as §1, §2

The target of data set [5] is T5, G12C KRAS (aa2-184).
Procedure: as §3, §4, §5, §6, §7, §8, §9
A short description of data set [6]: Mouse PK study, unbound plasma exposure of Example 33 after oral dosing of female NSG mice. The data set is classed as in vivo. The note with it: for Cav, ss, u / Cmax, u: unbound Example 33 in plasma, single oral dose 100 mg (active)/kg. The method, then: FIG. 1 provides mouse PK study results showing unbound plasma concentrations of Example 33 in female NSG mouse plasma after oral dosing of female NSG Mice at 100 mg/kg (n=3, mean+/−SD). The solution of Example 33 was prepared using a Pluronic-based formulation [2.5% (w/v) Pluronic F-68 (Poloxamer 188)], and the suspension arms of both Example 33 and Example 34 were prepared using a 0.5% (w/v) methylcellulose formulation.
The solution formulation of Example 33 was an aqueous solution with 2.5% (w/v) Pluronic F-68 (Poloxamer 188). The amorphous suspension formulations of Example 33 and Example 34 were made using in 0.5% (w/v) methylcellulose in water.

Data set [7] deals with T4, G12D KRAS (aa1-185).
Procedure: as §3, §4, §5, §6, §7, §8, §9
Data set [8] concerns the target T1, G12V KRAS (aa2-184).
Procedure: as §3, §4, §5, §6, §7, §8, §9
[9] abbreviates: suspension, relative to Example 33 suspension, 100 mg (active)/kg oral.
The mark [10] stands for this setting: suspension (0.5% methylcellulose).

The Kd is a measure of binding affinity in units of concentration. A lower Kd goes with tighter binding.

T2 sequence (P01112 2-184): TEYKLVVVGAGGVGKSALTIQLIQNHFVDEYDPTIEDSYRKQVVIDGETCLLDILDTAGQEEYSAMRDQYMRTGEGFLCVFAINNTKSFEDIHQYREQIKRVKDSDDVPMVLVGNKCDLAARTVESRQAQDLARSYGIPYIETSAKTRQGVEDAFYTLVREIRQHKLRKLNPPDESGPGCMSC
T1 sequence (P01116 2-184 isoform P01116-2 G12V): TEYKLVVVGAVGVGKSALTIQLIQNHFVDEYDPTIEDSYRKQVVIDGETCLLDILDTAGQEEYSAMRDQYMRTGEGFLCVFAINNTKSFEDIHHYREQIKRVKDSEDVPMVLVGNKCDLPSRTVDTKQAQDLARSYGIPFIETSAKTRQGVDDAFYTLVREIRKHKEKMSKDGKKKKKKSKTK
T6 sequence (P01116 1-185 isoform P01116-2): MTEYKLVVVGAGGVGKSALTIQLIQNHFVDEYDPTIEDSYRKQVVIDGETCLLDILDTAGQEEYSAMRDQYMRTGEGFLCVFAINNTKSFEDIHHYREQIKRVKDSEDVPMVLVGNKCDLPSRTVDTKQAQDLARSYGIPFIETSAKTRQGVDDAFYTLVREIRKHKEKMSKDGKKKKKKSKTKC
T3 sequence (P01111 2-185): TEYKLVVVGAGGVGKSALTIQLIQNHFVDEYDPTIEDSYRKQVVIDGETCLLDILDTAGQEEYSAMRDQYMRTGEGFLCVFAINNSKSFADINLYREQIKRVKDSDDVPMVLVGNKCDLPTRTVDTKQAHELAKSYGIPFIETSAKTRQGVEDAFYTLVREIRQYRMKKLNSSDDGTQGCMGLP

With `Oc1cc(-c2ncc3c(N4C[C@@H]5C[C@H](C4)[C@H](O)C5)nc(OC[C@@]45CCCN4C[C@H](F)C5)nc3c2F)c2c(F)c(F)ccc2c1` [Example 14, (1R,5R,6R)-3-[7-(7,8-difluoro-3-hydroxynaphthalen-1-yl)-8-fluoro-2-{[(2R,7aS)-2-fluorotetrahydro-1H-pyrrolizin-7a(5H)-yl]methoxy}pyrido[4,3-d]pyrimidin-4-yl]-3-azabicyclo[3.2.1]octan-6-ol], the Kd on G12V KRAS (aa2-184) [1] came out at 0.461 nM; on WT HRAS (aa2-184) it was 198 nM; on WT NRAS (aa2-185) it was 656 nM; on G12D KRAS (aa1-185) [2] it was 0.092 nM; on G12C KRAS (aa2-184) [3], 0.263 nM; in data set [4], 0.006 nM.
For `Oc1cc(-c2ncc3c(N4C[C@H]5CC[C@@H](C4)O5)nc(OC[C@@]45CCCN4C[C@H](F)C5)nc3c2F)c2c(F)c(F)ccc2c1` [Example 16, 5,6-difluoro-4-(8-fluoro-2-{[(2R,7aS)-2-fluorotetrahydro-1H-pyrrolizin-7a(5H)-yl]methoxy}-4-[(1R,5S)-8-oxa-3-azabicyclo[3.2.1]octan-3-yl]pyrido[4,3-d]pyrimidin-7-yl)naphthalen-2-ol, acetic acid salt], the Kd on G12V KRAS (aa2-184) [1] is 5.73 nM; on WT HRAS (aa2-184) it was above 10000 nM; on WT NRAS (aa2-185) it was above 10000 nM; at G12D KRAS (aa1-185) [2], 23.8 nM; at G12C KRAS (aa2-184) [3] it was 8.57 nM; in [4] it was 5.82 nM.
Turning to `Oc1cc(-c2ncc3c(N4C[C@@H]5C[C@H](C4)[C@H](O)C5)nc(OC[C@@]45CCCN4C[C@H](F)C5)nc3c2F)c2c(Cl)cccc2c1` [Example 20, (1R,5R,6R)-3-[7-(8-chloro-3-hydroxynaphthalen-1-yl)-8-fluoro-2-{[(2R,7aS)-2-fluorotetrahydro-1H-pyrrolizin-7a(5H)-yl]methoxy}pyrido[4,3-d]pyrimidin-4-yl]-3-azabicyclo[3.2.1]octan-6-ol], the Kd turned out to be 0.098 nM at G12V KRAS (aa2-184) [1]; 725 nM at WT HRAS (aa2-184); 1000 nM at WT NRAS (aa2-185); 0.138 nM on G12D KRAS (aa1-185) [2]; 0.629 nM at G12C KRAS (aa2-184) [3]; 0.075 nM in data set [4].
Take `C#Cc1c(F)c(F)cc2cc(O)cc(-c3nc4c5c(nc(OC[C@@]67CCCN6C[C@H](F)C7)nc5c3F)N3CCCC[C@H]3CO4)c12` [Example 33, 5-ethynyl-6,7-difluoro-4-[(8aS)-4-fluoro-2-{[(2R,7aS)-2-fluorotetrahydro-1H-pyrrolizin-7a(5H)-yl]methoxy}-8,8a,9,10,11,12-hexahydro-7-oxa-1,3,6,12a-tetraazabenzo[4,5]cyclohepta[1,2,3-de]naphthalen-5-yl]naphthalen-2-ol]: the Kd came out at 0.019 nM on G12C KRAS (aa2-184) [5], 0.019 nM on G12D KRAS (aa1-185) [7], 0.023 nM in data set [4] and 0.096 nM at G12V KRAS (aa2-184) [8]. Besides, the “Cav Fold Increase” value in data set [6] (setting [9]) amounted to 1. Also, the “Cmax Fold increase” value in [6] (setting [9]) came to 1. Also, the “Cav, ss, u” value is recorded as 0.30 nM in data set [6] (solution (2.5% Pluronic F-68)) and 0.37 nM in data set [6] (setting [10]). For the same compound, the “Cmax, u” value in data set [6] (solution (2.5% Pluronic F-68)) was 0.60 nM; in data set [6] (setting [10]), 0.48 nM.
